PMC3344384 (Chemistry & biology, 2011)

Legend:
[1] = target: USP46/UAF1 (Homo sapiens, UniProt P62068); experiment: K63-linked diubiquitin cleavage assay, USP46/UAF1; format: biochemical; conditions: for IC50 USP46/UAF1: K63-linked diubiquitin substrate, NI = no significant inhibition at 114 μM
[2] = target: T1, caspase-1 (Homo sapiens, UniProt P29466); experiment: cysteine protease selectivity, caspase-1; format: biochemical
T1 sequence (P29466 120-297 limits assumed): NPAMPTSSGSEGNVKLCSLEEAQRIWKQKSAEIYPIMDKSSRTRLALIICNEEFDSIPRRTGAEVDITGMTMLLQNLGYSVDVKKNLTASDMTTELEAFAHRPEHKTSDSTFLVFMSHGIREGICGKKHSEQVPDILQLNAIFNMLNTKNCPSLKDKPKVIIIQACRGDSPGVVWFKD
T1 sequence (P29466 317-404 limits assumed): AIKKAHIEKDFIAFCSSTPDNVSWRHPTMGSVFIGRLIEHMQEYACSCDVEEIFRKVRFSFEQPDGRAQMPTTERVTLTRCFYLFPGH

[3] = target: T2, SENP1 (Homo sapiens, UniProt Q9P0U3); experiment: SUMO1-AMC assay, SENP1; format: biochemical; conditions: SUMO1-AMC substrate
T2 sequence (Q9P0U3 1-644): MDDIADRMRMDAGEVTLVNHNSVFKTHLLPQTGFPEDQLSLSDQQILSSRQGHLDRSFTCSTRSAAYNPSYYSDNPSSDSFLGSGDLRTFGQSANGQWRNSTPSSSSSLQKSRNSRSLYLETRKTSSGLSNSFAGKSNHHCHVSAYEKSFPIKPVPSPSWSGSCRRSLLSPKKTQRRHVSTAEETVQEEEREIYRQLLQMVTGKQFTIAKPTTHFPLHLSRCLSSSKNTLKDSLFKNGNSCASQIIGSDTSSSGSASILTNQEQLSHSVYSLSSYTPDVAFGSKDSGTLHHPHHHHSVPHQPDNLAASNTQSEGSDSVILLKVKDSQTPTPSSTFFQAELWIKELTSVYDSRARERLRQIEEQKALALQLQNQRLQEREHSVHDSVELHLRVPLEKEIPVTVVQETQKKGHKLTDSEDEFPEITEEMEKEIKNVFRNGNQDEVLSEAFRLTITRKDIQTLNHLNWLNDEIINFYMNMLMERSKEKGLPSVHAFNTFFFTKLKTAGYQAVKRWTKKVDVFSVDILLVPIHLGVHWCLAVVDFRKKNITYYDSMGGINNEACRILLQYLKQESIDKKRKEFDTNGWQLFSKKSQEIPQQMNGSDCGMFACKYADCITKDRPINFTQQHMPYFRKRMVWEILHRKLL

[4] = target: T3, USP8 (Homo sapiens, UniProt P40818); experiment: K63-linked diubiquitin cleavage assay, USP8; conditions: for IC50 USP8: K63-linked diubiquitin substrate, NI = no significant inhibition at 114 μM
T3 sequence (P40818 1-1118): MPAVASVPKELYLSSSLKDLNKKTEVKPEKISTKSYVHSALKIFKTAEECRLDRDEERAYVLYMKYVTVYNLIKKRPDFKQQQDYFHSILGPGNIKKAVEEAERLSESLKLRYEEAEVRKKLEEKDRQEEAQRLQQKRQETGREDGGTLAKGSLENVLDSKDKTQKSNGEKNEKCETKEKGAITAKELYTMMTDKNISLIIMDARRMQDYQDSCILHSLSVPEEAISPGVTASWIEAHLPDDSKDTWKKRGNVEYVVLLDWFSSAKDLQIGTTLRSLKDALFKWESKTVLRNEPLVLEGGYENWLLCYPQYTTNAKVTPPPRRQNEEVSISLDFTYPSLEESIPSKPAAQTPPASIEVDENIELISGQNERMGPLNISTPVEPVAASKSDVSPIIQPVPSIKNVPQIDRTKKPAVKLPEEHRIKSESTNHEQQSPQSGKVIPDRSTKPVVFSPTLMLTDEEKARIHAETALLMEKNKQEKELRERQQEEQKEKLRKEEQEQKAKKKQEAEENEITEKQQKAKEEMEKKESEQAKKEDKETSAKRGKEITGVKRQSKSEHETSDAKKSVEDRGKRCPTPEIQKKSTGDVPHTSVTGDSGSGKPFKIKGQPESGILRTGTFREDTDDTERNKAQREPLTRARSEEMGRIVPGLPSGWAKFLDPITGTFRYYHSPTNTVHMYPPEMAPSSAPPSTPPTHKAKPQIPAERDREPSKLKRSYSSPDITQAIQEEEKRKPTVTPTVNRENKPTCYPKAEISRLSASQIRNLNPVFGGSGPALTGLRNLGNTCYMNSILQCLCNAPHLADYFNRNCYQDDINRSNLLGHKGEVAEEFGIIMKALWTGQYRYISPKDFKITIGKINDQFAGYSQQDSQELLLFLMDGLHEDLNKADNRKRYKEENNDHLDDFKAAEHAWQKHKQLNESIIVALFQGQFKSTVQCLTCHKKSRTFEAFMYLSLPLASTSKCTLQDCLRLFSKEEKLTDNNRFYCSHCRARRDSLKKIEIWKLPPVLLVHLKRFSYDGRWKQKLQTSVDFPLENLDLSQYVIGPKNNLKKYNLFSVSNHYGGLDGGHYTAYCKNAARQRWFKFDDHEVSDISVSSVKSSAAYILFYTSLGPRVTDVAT

[5] = target: T4, UCH-L3 (Homo sapiens, UniProt P15374); experiment: Ub-Rho assay, UCH-L3; format: biochemical
T4 sequence (P15374 1-230): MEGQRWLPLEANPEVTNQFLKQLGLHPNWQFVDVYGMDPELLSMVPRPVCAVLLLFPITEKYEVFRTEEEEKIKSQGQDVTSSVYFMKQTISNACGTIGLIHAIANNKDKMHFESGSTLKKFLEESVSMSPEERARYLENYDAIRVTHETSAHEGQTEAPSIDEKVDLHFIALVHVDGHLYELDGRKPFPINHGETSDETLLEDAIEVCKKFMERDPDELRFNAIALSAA

[6] = target: T5, UCH-L1 (Homo sapiens, UniProt P09936); experiment: Ub-Rho assay, UCH-L1; format: biochemical
T5 sequence (P09936 1-223): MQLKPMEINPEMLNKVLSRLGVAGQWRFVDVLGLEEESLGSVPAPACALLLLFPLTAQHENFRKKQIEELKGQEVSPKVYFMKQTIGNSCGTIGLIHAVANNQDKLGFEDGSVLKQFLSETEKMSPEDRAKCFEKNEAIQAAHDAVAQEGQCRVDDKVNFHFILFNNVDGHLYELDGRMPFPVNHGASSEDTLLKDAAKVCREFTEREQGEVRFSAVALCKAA

[7] = target: T6, caspase-3 (Homo sapiens, UniProt P42574); experiment: cysteine protease selectivity, caspase-3; format: biochemical
T6 sequence (P42574 29-175 limits assumed): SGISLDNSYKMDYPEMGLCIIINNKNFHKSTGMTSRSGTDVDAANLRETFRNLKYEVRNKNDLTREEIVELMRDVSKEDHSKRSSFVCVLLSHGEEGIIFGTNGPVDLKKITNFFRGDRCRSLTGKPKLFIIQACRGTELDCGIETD
T6 sequence (P42574 176-277 limits assumed): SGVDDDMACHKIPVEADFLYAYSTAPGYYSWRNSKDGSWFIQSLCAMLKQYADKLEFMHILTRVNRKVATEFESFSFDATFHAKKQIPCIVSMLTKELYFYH

Chain of USP46/UAF1 (P62068 whole entry): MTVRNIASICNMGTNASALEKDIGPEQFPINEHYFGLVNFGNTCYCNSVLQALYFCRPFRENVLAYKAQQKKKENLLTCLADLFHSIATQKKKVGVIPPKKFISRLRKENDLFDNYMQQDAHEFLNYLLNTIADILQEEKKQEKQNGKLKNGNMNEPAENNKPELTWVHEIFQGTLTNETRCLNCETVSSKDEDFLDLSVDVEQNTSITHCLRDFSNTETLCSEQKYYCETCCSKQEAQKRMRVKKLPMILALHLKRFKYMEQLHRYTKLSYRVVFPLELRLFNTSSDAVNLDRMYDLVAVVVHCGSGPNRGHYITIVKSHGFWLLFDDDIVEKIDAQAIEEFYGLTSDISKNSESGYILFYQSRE
Chain of USP46/UAF1 (Q8TAF3 whole entry partner): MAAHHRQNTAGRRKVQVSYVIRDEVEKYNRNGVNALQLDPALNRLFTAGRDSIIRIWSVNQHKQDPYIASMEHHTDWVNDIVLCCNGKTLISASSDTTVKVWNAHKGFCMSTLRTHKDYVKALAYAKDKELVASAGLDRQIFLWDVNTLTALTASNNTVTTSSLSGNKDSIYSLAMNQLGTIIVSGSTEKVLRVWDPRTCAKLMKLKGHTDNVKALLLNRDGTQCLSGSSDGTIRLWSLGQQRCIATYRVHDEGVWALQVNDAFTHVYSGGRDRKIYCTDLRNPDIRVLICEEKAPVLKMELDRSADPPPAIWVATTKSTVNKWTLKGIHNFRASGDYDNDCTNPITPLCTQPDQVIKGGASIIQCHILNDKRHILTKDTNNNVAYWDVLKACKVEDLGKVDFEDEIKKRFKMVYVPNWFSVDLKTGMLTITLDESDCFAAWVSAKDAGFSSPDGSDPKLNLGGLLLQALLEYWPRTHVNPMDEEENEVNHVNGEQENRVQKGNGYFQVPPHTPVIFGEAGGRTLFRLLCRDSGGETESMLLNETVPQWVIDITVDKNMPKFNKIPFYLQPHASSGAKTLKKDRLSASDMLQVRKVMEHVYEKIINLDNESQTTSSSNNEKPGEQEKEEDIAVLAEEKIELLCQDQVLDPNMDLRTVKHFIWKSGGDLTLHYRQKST

IC50 USP46/UAF1 [1] | IC50 [2] [µM] | inhibition of SENP1 [3] | IC50 [4] [µM] | IC50 [5] [µM] | IC50 [6] [µM] | IC50 [7] [µM] | SMILES | IC50 [1] [µM] | IC50 USP8 [4]
did not inhibit | > 250 | low level of inhibition | > 114 | > 500 | > 500 | > 250 | OCCN1CCN(CCC=C2c3ccccc3Sc3ccc(C(F)(F)F)cc32)CC1 [Flupenthixol, flupenthixol] |  | 
did not inhibit | > 250 | low level of inhibition |  | > 500 | > 500 | > 250 | O=c1[nH]c2ccccc2n1C1CCN(CCCC(c2ccc(F)cc2)c2ccc(F)cc2)CC1 [Pimozide, pimozide] |  | No inhibition
did not inhibit | > 250 | low level of inhibition |  | > 500 | > 500 | > 250 | CN1CCN(CCCN2c3ccccc3Sc3ccc(C(F)(F)F)cc32)CC1 [Trifluoperazine, trifluoperazine] |  | 

SMILES | IC50 USP46/UAF1 [1] | IC50 [2] [µM] | inhibition of SENP1 [3] | IC50 [4] [µM] | IC50 [5] [µM] | IC50 [6] [µM] | IC50 [7] [µM] | IC50 [1] [µM] | IC50 USP8 [4]
CC(C)(Sc1ccc(CCN(CCCCC2CCCCC2)C(=O)NC2CCCCC2)cc1)C(=O)O [GW7647] |  | 42 | low level of inhibition |  | > 200 | > 200 | > 250 | 12 ± 1 | did not inhibit
